Source: patent US10294202B2, “Pyrrolidinones as herbicides” (FMC Corporation, priority 2013, dated 2019)

Legend:
corn = assay: Test C pre-/postemergence herbicide test; type: in vivo, Zea mays; conditions: Preemergence; for Plant response rating (scale of 0 to 100), Corn: 250 g ai/ha
From the text: (§1) Seeds of plant species selected from blackgrass (Alopecurus myosuroides), ryegrass, Italian (Italian ryegrass, Lolium multiflorum), wheat (winter wheat, Triticum aestivum), galium (catchweed bedstraw, Galium aparine), corn (Zea mays), crabgrass, large (large crabgrass, Digitaria sanguinalis), foxtail, giant (giant foxtail, Setaria faberii), johnsongrass (Sorghum halepense), lambsquarters (Chenopodium album), morningglory (Ipomoea coccinea), nutsedge, yellow (yellow nutsedge, Cyperus esculentus), pigweed (Amaranthus retroflexus), ragweed (common ragweed, Ambrosia elatior), soybean (Glycine max), barnyardgrass (Echinochloa crus-galli), oilseed rape (Brassica napus), waterhemp (common waterhemp, Amaranthus rudis), kochia (Kochia scoparia), oat, wild (wild oat, Avena fatua), surinam grass (Brachiaria decumbens), foxtail, green (green foxtail, Setaria viridis), goosegrass (Eleusine indica), bromegrass, downy (downy bromegrass, Bromus tectorum), nightshade (eastern black nightshade, Solanum ptycanthum), cocklebur (common cocklebur, Xanthium strumarium), cupgrass, woolly (woolly cupgrass, Eriochloa villosa), bermudagrass (Cynodon dactylon), sunflower, (common oilseed sunflower, Helianthus annuus), Russian thistle (Salsola kali) and velvetleaf (Abutilon theophrasti) were planted into a blend of loam soil and sand and treated preemergence with test chemicals formulated in a non-phytotoxic solvent mixture which included a surfactant. At the same time, plants selected from these crop and weed species and also barley (winter barley, Hordeum vulgare), […]), chickweed (common chickweed, Stellaria media), deadnettle (henbit deadnettle, Lamium amplexicaule), and canarygrass (littleseed canarygrass, Phalaris minor) were planted in pots containing Redi-Earth® planting medium (Scotts Company, 14111 Scottslawn Road, Marysville, Ohio 43041) comprising spaghnum peat moss, vermiculite, wetting agent and starter nutrients and treated with postemergence applications of test chemicals formulated in the same manner. Plants ranged in height from 2 to 18 cm (1- to 4-leaf stage) for postemergence treatments. Treated plants and controls were maintained in a greenhouse for 13 to 15 days, after which time all species were compared to controls and visually evaluated. Plant response ratings, summarized in Table C, are based on a scale of 0 to 100 where 0 is no effect and 100 is complete control. A dash (-) response means no test result.

soybean = assay: Test C pre-/postemergence herbicide test; type: in vivo, Glycine max; conditions: Preemergence; for Plant response rating (scale of 0 to 100), Soybean: 250 g ai/ha
From the text: as §1

pigweed = assay: Test C pre-/postemergence herbicide test; type: in vivo, Amaranthus retroflexus; conditions: Preemergence; for Plant response rating (scale of 0 to 100), Pigweed: 250 g ai/ha
From the text: as §1

oilseed rape = assay: Test C pre-/postemergence herbicide test; type: in vivo, Brassica napus; conditions: Preemergence; for Plant response rating (scale of 0 to 100), Oilseed Rape: 250 g ai/ha
From the text: as §1

rice = assay: Test B flooded paddy test; type: in vivo, Oryza sativa; conditions: Flood, scale of 0 to 100 where 0 is no effect and 100 is complete control
Summary of the method: (§2)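 2-leaf plants; flood 3 cm over soil; compound into paddy water; depth held. Greenhouse 13–15 d. Visual rating vs controls, 0 (no effect) to 100 (complete control); dash = not tested.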

morningglory = assay: Test C pre-/postemergence herbicide test; type: in vivo, Ipomoea coccinea; conditions: Preemergence; for Plant response rating (scale of 0 to 100), Morningglory: 250 g ai/ha
From the text: as §1

velvetleaf = assay: Test C pre-/postemergence herbicide test; type: in vivo, Abutilon theophrasti; conditions: Preemergence; for Plant response rating (scale of 0 to 100), Velvetleaf: 250 g ai/ha
From the text: as §1

waterhemp = assay: Test C pre-/postemergence herbicide test; type: in vivo, Amaranthus rudis; conditions: Preemergence; for Plant response rating (scale of 0 to 100), Waterhemp: 250 g ai/ha
From the text: as §1

ducksalad = assay: Test B flooded paddy test; type: in vivo, Heteranthera limosa; conditions: Flood, scale of 0 to 100 where 0 is no effect and 100 is complete control
Summary of the method: as §2

wheat (winter wheat) = assay: Test C pre-/postemergence herbicide test; type: in vivo, Triticum aestivum; conditions: Preemergence; for Plant response rating (scale of 0 to 100), Wheat: 250 g ai/ha
From the text: as §1

barnyardgrass = assay: Test C pre-/postemergence herbicide test; type: in vivo, Echinochloa crus-galli; conditions: Preemergence; for Plant response rating (scale of 0 to 100; 0 is no effect, 100 is complete control), Barnyardgrass: 250 g ai/ha
From the text: as §1

[1] = 31 g ai/ha, scale 0 to 100, 0 is no effect and 100 is complete control
[2] = 125 g ai/ha, scale 0 to 100 (0 no effect, 100 complete control)
[3] = 62 g ai/ha, scale 0 to 100 (0 no effect, 100 complete control)

O=C1NCC(c2ccc(F)c(C(F)(F)F)c2)C1C(=O)Nc1cccc(F)c1F (racemic) [Compound 77]
Corn plant response rating (corn; [1]): 0 | Plant response rating, Corn (corn; 62 g ai/ha, scale 0 to 100): 20 | Plant response rating, Corn (corn; [2]): 55 | Plant response rating (scale of 0 to 100), Corn (corn): 70 | Soybean plant response rating (soybean; [1]): 0 | Plant response rating, Soybean (soybean; 62 g ai/ha, scale 0 to 100): 0 | Plant response rating, Soybean (soybean; [2]): 0 | Plant response rating (scale of 0 to 100), Soybean (soybean): 0 | Pigweed plant response rating (pigweed; [1]): 0 | Plant response rating, Pigweed (pigweed; 62 g ai/ha, scale 0 to 100): 60 | Plant response rating, Pigweed (pigweed; [2]): 60 | Plant response rating (scale of 0 to 100), Pigweed (pigweed): 85 | Oilseed Rape plant response rating (oilseed rape; [1]): 0 | Plant response rating, Oilseed Rape (oilseed rape; 62 g ai/ha, scale 0 to 100): 30 | Plant response rating, Oilseed Rape (oilseed rape; [2]): 60 | Plant response rating (scale of 0 to 100), Oilseed Rape (oilseed rape): 85 | Plant response rating, Rice (rice; 250 g ai/ha): 10 | Morningglory plant response rating (morningglory; [1]): 0 | Plant response rating, Morningglory (morningglory; 62 g ai/ha, scale 0 to 100): 0 | Plant response rating, Morningglory (morningglory; [2]): 0 | Plant response rating (scale of 0 to 100), Morningglory (morningglory): 0 | Velvetleaf plant response rating (velvetleaf; [1]): 0 | Plant response rating, Velvetleaf (velvetleaf; 62 g ai/ha, scale 0 to 100): 25 | Plant response rating, Velvetleaf (velvetleaf; [2]): 30 | Plant response rating (scale of 0 to 100), Velvetleaf (velvetleaf): 40 | Waterhemp plant response rating (waterhemp; [1]): 40 | Plant response rating, Waterhemp (waterhemp; 62 g ai/ha, scale 0 to 100): 40 | Plant response rating, Waterhemp (waterhemp; [2]): 70 | Plant response rating (scale of 0 to 100), Waterhemp (waterhemp): 85 | Plant response rating, Ducksalad (ducksalad; 250 g ai/ha): 100 | Wheat plant response rating (wheat (winter wheat); [1]): 0 | Plant response rating, Wheat (wheat (winter wheat); 62 g ai/ha, scale 0 to 100): 55 | Plant response rating, Wheat (wheat (winter wheat); [2]): 80 | Plant response rating (scale of 0 to 100), Wheat (wheat (winter wheat)): 90 | Barnyardgrass plant response rating (barnyardgrass; [1]): 90 | Plant response rating, Barnyardgrass (barnyardgrass; 62 g ai/ha, scale 0 to 100): 95 | Plant response rating, Barnyardgrass (barnyardgrass; [2]): 95 | Plant response rating (scale of 0 to 100; 0 is no effect, 100 is complete control), Barnyardgrass (barnyardgrass): 95

O=C1NCC(c2ccc(OC(F)F)cc2)C1C(=O)Nc1cccc(F)c1F (racemic) [Compound 350]
Corn plant response rating (corn; [3]): 0 | Plant response rating, Corn (corn; 125 g ai/ha, scale 0 to 100): 5 | Plant response rating (scale of 0 to 100), Corn (corn): 40 | Plant response rating, Corn (corn; 31 g ai/ha, scale 0 to 100): 0 | Soybean plant response rating (soybean; [3]): 0 | Plant response rating, Soybean (soybean; 125 g ai/ha, scale 0 to 100): 0 | Plant response rating, Soybean (soybean; 31 g ai/ha, scale 0 to 100): 0 | Pigweed plant response rating (pigweed; [3]): 10 | Plant response rating, Pigweed (pigweed; 125 g ai/ha, scale 0 to 100): 80 | Plant response rating, Pigweed (pigweed; 31 g ai/ha, scale 0 to 100): 0 | Oilseed Rape plant response rating (oilseed rape; [3]): 70 | Plant response rating, Oilseed Rape (oilseed rape; 125 g ai/ha, scale 0 to 100): 80 | Plant response rating (scale of 0 to 100), Oilseed Rape (oilseed rape): 85 | Plant response rating, Oilseed Rape (oilseed rape; 31 g ai/ha, scale 0 to 100): 5 | Plant response rating, Rice (rice; 500 g ai/ha): 0 | Morningglory plant response rating (morningglory; [3]): 100 | Plant response rating, Morningglory (morningglory; 125 g ai/ha, scale 0 to 100): 100 | Plant response rating (scale of 0 to 100), Morningglory (morningglory): 100 | Plant response rating, Morningglory (morningglory; 31 g ai/ha, scale 0 to 100): 100 | Velvetleaf plant response rating (velvetleaf; [3]): 0 | Plant response rating, Velvetleaf (velvetleaf; 125 g ai/ha, scale 0 to 100): 0 | Plant response rating, Velvetleaf (velvetleaf; 31 g ai/ha, scale 0 to 100): 0 | Waterhemp plant response rating (waterhemp; [3]): 50 | Plant response rating, Waterhemp (waterhemp; 125 g ai/ha, scale 0 to 100): 90 | Plant response rating, Waterhemp (waterhemp; 31 g ai/ha, scale 0 to 100): 0 | Plant response rating, Ducksalad (ducksalad; 500 g ai/ha): 100 | Wheat plant response rating (wheat (winter wheat); [3]): 0 | Plant response rating, Wheat (wheat (winter wheat); 125 g ai/ha, scale 0 to 100): 0 | Plant response rating, Wheat (wheat (winter wheat); 31 g ai/ha, scale 0 to 100): 0 | Barnyardgrass plant response rating (barnyardgrass; [3]): 90 | Plant response rating, Barnyardgrass (barnyardgrass; [2]): 90 | Plant response rating (scale of 0 to 100; 0 is no effect, 100 is complete control), Barnyardgrass (barnyardgrass): 90 | Plant response rating, Barnyardgrass (barnyardgrass; 31 g ai/ha, scale 0 to 100): 75

O=C1NCC(c2ccc(C(F)(F)F)cc2)C1C(=O)Nc1ccccc1F (stereo not shown) [Compound 231]
Corn plant response rating (corn; [1]): 0 | Corn plant response rating (corn; [3]): 5 | Plant response rating, Corn (corn; [2]): 70 | Plant response rating (scale of 0 to 100), Corn (corn): 85 | Soybean plant response rating (soybean; [1]): 0 | Soybean plant response rating (soybean; [3]): 0 | Plant response rating, Soybean (soybean; [2]): 0 | Plant response rating (scale of 0 to 100), Soybean (soybean): 5 | Pigweed plant response rating (pigweed; [1]): 35 | Pigweed plant response rating (pigweed; [3]): 70 | Plant response rating, Pigweed (pigweed; [2]): 85 | Plant response rating (scale of 0 to 100), Pigweed (pigweed): 90 | Oilseed Rape plant response rating (oilseed rape; [1]): 0 | Oilseed Rape plant response rating (oilseed rape; [3]): 55 | Plant response rating, Oilseed Rape (oilseed rape; [2]): 85 | Plant response rating (scale of 0 to 100), Oilseed Rape (oilseed rape): 90 | Plant response rating, Rice (rice; 500 g ai/ha): 0 | Morningglory plant response rating (morningglory; [1]): 0 | Morningglory plant response rating (morningglory; [3]): 0 | Plant response rating, Morningglory (morningglory; [2]): 0 | Plant response rating (scale of 0 to 100), Morningglory (morningglory): 20 | Velvetleaf plant response rating (velvetleaf; [1]): 10 | Velvetleaf plant response rating (velvetleaf; [3]): 25 | Plant response rating, Velvetleaf (velvetleaf; [2]): 35 | Plant response rating (scale of 0 to 100), Velvetleaf (velvetleaf): 60 | Waterhemp plant response rating (waterhemp; [1]): 75 | Waterhemp plant response rating (waterhemp; [3]): 85 | Plant response rating, Waterhemp (waterhemp; [2]): 100 | Plant response rating (scale of 0 to 100), Waterhemp (waterhemp): 95 | Plant response rating, Ducksalad (ducksalad; 500 g ai/ha): 0 | Wheat plant response rating (wheat (winter wheat); [1]): 0 | Wheat plant response rating (wheat (winter wheat); [3]): 15 | Plant response rating, Wheat (wheat (winter wheat); [2]): 20 | Plant response rating (scale of 0 to 100), Wheat (wheat (winter wheat)): 80 | Barnyardgrass plant response rating (barnyardgrass; [1]): 85 | Plant response rating, Barnyardgrass (barnyardgrass; 62 g ai/ha, scale 0 to 100): 90 | Plant response rating, Barnyardgrass (barnyardgrass; [2]): 95 | Plant response rating (scale of 0 to 100; 0 is no effect, 100 is complete control), Barnyardgrass (barnyardgrass): 95
